From patent publication US20040266002A1, “Use of abscisic acid in somatic embryogenesis of pine trees” (Weyerhaeuser Company, priority 2003, published 2004)
Marks after values point to notes of the source that are not given here.

Test system: Loblolly pine (Pinus taeda) pre-cotyledonary somatic embryos
Assay: Abscisic acid pulse during development of Loblolly pine somatic embryos
Type: cell-based
Method: Development: Pre-cotyledonary somatic embryos were transferred from maintenance medium into solid development medium BM3 containing 25 mg/L abscisic acid for four weeks to yield treated pre-cotyledonary somatic embryos. The development medium either lacks growth hormones entirely, or has them present only at very low levels. The further inclusion of an adsorbent composition in this medium is advantageous. The adsorbent composition is normally present at a concentration of about 0.1-5 g/L, more generally about 0.25-2.5 g/L. Gelrite was included at a concentration of about 0.25%.
After culturing pre-cotyledonary embryos on solid development medium containing 25 mg/L abscisic acid for 4 weeks, the abscisic acid-treated pre-cotyledonary embryos were transferred on a filter paper support to solid development medium without abscisic acid. The solid development medium without abscisic acid had the same composition as development medium BM3. Development is preferably carried out in complete darkness at a temperature of 22°-25 C until elongated cotyledonary embryos have developed. Development time is typically several weeks, such as 10 to 12 weeks.
Female gametophytes containing zygotic embryos were removed from seeds of genotypes A, B and C, as described in EXAMPLE 1, above. The induction and maintenance stages were as described in EXAMPLE 1.
To test the effect of a pulse of abscisic acid, pre-cotyledonary embryos were transferred to a filter paper support placed on solid development medium BM3 containing abscisic acid. Six different treatments were tested. The concentration of abscisic acid, and the time period during which the pre-cotyledonary embryos were exposed to the abscisic acid during each treatment, are shown in Table 3.
As a control, pre-cotyledonary embryos were maintained in development medium BM3 containing 25 mg/L abscisic acid for twelve weeks. After twelve weeks, both control and experimental embryos were taken through the standard post-development treatments as described in EXAMPLE 1. Germination was assessed after twelve weeks on germination media in the light at room temperature.

SMILES: CC1=CC(=O)CC(C)(C)[C@@]1(O)/C=C/C(C)=C\C(=O)O [Abscisic Acid, abscisic acid]
- Mean Dry Weight (All genotypes combined, Control: 25 mg/L abscisic acid weeks 1-12): 0.37 mg/emb
- Mean Dry Weight (All genotypes combined, Treatment 1: 25 mg/L weeks 1-3, 0 weeks 4-12): 0.49* mg/emb
- Mean Dry Weight (All genotypes combined, Treatment 2: 25 mg/L weeks 1-5, 0 weeks 6-12): 0.47* mg/emb
- Mean Dry Weight (All genotypes combined, Treatment 3: 25 mg/L weeks 1-7, 0 weeks 8-12): 0.47* mg/emb
- Mean Dry Weight (All genotypes combined, Treatment 4: 25 mg/L weeks 1-9, 0 weeks 10-12): 0.48* mg/emb
- Mean Dry Weight (All genotypes combined, Treatment 5: 25 mg/L weeks 1-3, 15 weeks 4-5, 10 weeks 6-7, 5 weeks 8-9, 0 weeks 10-12): 0.50* mg/emb
- Mean Dry Weight (All genotypes combined, Treatment 6: 25 mg/L weeks 1-5, 15 weeks 6-7, 10 weeks 8-9, 0 weeks 10-12): 0.48* mg/emb
- Embryo morphology at the end of development (both control (continuous abscisic acid) and experimental (pulse) embryos): good morphological form, good cotyledon development, and normal color
- Mean Dry Weight (genotype A, Control: 25 mg/L abscisic acid weeks 1-12): 0.27 mg/emb
- Mean Dry Weight (genotype A, Treatment 1: 25 mg/L weeks 1-3, 0 weeks 4-12): 0.38* mg/emb
- Mean Dry Weight (genotype A, Treatment 2: 25 mg/L weeks 1-5, 0 weeks 6-12): 0.36* mg/emb
- Mean Dry Weight (genotype A, Treatment 3: 25 mg/L weeks 1-7, 0 weeks 8-12): 0.34 mg/emb
- Mean Dry Weight (genotype A, Treatment 4: 25 mg/L weeks 1-9, 0 weeks 10-12): 0.32 mg/emb
- Mean Dry Weight (genotype A, Treatment 5: 25 mg/L weeks 1-3, 15 weeks 4-5, 10 weeks 6-7, 5 weeks 8-9, 0 weeks 10-12): 0.36* mg/emb
- Mean Dry Weight (genotype A, Treatment 6: 25 mg/L weeks 1-5, 15 weeks 6-7, 10 weeks 8-9, 0 weeks 10-12): 0.33 mg/emb
- Mean Dry Weight (genotype B, Control: 25 mg/L abscisic acid weeks 1-12): 0.31 mg/emb
- Mean Dry Weight (genotype B, Treatment 1: 25 mg/L weeks 1-3, 0 weeks 4-12): 0.32 mg/emb
- Mean Dry Weight (genotype B, Treatment 2: 25 mg/L weeks 1-5, 0 weeks 6-12): 0.31 mg/emb
- Mean Dry Weight (genotype B, Treatment 3: 25 mg/L weeks 1-7, 0 weeks 8-12): 0.37 mg/emb
- Mean Dry Weight (genotype B, Treatment 4: 25 mg/L weeks 1-9, 0 weeks 10-12): 0.37 mg/emb
- Mean Dry Weight (genotype B, Treatment 5: 25 mg/L weeks 1-3, 15 weeks 4-5, 10 weeks 6-7, 5 weeks 8-9, 0 weeks 10-12): 0.36 mg/emb
- Mean Dry Weight (genotype B, Treatment 6: 25 mg/L weeks 1-5, 15 weeks 6-7, 10 weeks 8-9, 0 weeks 10-12): 0.36 mg/emb
- Mean Dry Weight (genotype C, Control: 25 mg/L abscisic acid weeks 1-12): 0.55 mg/emb
- Mean Dry Weight (genotype C, Treatment 1: 25 mg/L weeks 1-3, 0 weeks 4-12): 0.79* mg/emb
- Mean Dry Weight (genotype C, Treatment 2: 25 mg/L weeks 1-5, 0 weeks 6-12): 0.80* mg/emb
- Mean Dry Weight (genotype C, Treatment 3: 25 mg/L weeks 1-7, 0 weeks 8-12): 0.69 mg/emb
- Mean Dry Weight (genotype C, Treatment 4: 25 mg/L weeks 1-9, 0 weeks 10-12): 0.76* mg/emb
- Mean Dry Weight (genotype C, Treatment 5: 25 mg/L weeks 1-3, 15 weeks 4-5, 10 weeks 6-7, 5 weeks 8-9, 0 weeks 10-12): 0.90* mg/emb
- Mean Dry Weight (genotype C, Treatment 6: 25 mg/L weeks 1-5, 15 weeks 6-7, 10 weeks 8-9, 0 weeks 10-12): 0.84* mg/emb
- Dry weight of embryos receiving the abscisic acid pulse versus control embryos (pulse treatments versus control with 25 mg/L abscisic acid for twelve weeks): higher dry weight than the control embryos
